The values that follow come from patent publication US20220030868A1, “FUNGICIDAL HALOMETHYL KETONES AND HYDRATES” (FMC CORPORATION, priority 2018, published 2022).

The structures appear in SMILES notation.

In general, pest or weed control refers to how far the test organism was held down. The low end stands for a weak effect, the high end for a strong effect.

Holding throughout (format): in vivo
For one test, the system named is Uncinula necator. Kind of test: Test C: test suspension sprayed on grape seedlings one day before inoculation with Uncinula necator spores (grape powdery mildew), disease rating. To be noted: Erysiphe necator, 100 = 100% disease control; for pest or weed control at 50 ppm: 50 ppm test suspension. An excerpt: General protocol for preparing test suspensions for Tests A-C: the test compounds were first dissolved in acetone in an amount equal to 3% of the final volume and then suspended at the desired concentration (in ppm) in acetone and purified water (50/50 mix by volume) containing 250 ppm of the surfactant PEG400 (polyhydric alcohol esters). The resulting test suspensions were then used in Tests A-C. The test solution was sprayed to the point of run-off on grape seedlings. The following day the seedlings were inoculated with a spore suspension of Uncinula necator (the causal agent of grape powdery mildew) and incubated in a growth chamber at 20° C. for 12 days, after which time disease ratings were made. Results for Tests A-C are given in Table A. In the Table, a rating of 100 indicates 100% disease control and a rating of 0 indicates no disease control (relative to the controls). An asterisk “*” or a double asterisk “**” next to the rating value indicates a 50 ppm or 10 ppm test suspension was used, respectively. A dash (-) indicates the compound was not tested.

The next test relates to Phakopsora pachyrhizi. The experiment in a line: Test A: test suspension sprayed on soybean seedlings one day before inoculation with Phakopsora pachyrhizi spores (Asian soybean rust), visual disease rating. To be noted: 100 = 100% disease control, 0 = no control. In a few lines: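 Soybean seedlings were sprayed to run-off with test suspension (acetone 3% of volume, acetone/water 50/50, 250 ppm PEG400) and inoculated with rust spores one day later. Incubation: 24 h saturated atmosphere at 22° C, then 8 days growth chamber at 22° C; scores 0–100 relative to untreated controls.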

Test [1] concerns Puccinia recondita f. sp. tritici. The experiment in a line: Test B: test suspension sprayed on wheat seedlings one day before inoculation with Puccinia recondita f. sp. tritici spores (wheat leaf rust), disease rating. To be noted: 100 = 100% disease control, 0 = no control. Put shortly:
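Wheat seedlings were sprayed to run-off with compound suspended in 50/50 acetone/water containing 250 ppm PEG400, then inoculated with P. recondita f. sp. tritici spores the next day. Plants were held 24 h in saturated air at 20 °C, then 6 days in a growth chamber at 20 °C. Disease control was rated 0–100% relative to controls, with some entries run at 50 or 10 ppm.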

Where [2] appears, read: Phakopsora pachyrhizi, 10 ppm test suspension.

For `CCOC(=O)c1cnn(Cc2ccc(OCC3(C(F)(F)F)OCCO3)cc2)c1` [Compound 32, ethyl 1-[[4-[[2-(trifluoromethyl)-1,3-dioxolan-2-yl]methoxy]phenyl]methyl]-1H-pyrazole-4-carboxylate], the pest or weed control at 50 ppm with Uncinula necator was 100%; with Phakopsora pachyrhizi (Phakopsora pachyrhizi, 50 ppm test suspension), 100%; in test [1] (50 ppm test suspension), 68%.
In the test with Uncinula necator (10 ppm test suspension (double asterisk)), `CCOC(=O)c1cnn(Cc2ccc(O/C=C(\OCC)C(F)(F)F)cc2)c1` [Compound 64, ethyl 1-[[4-[[(1Z)-2-ethoxy-3,3,3-trifluoro-1-propen-1-yl]oxy]phenyl]methyl]-1H-pyrazole-4-carboxylate] yielded a pest or weed control at 10 ppm of 100%. Besides, the pest or weed control at 250 ppm in the test on Phakopsora pachyrhizi (Phakopsora pachyrhizi, 250 ppm test suspension) came out at 100%; in test [1] (250 ppm test suspension), 99%.
`CC(C)COC(=O)c1cnn(Cc2ccc(OCC3(C(F)(F)F)OCCO3)cc2)c1` [Compound 126, 2-methylpropyl 1-[[4-[[2-(trifluoromethyl)-1,3-dioxolan-2-yl]methoxy]phenyl]methyl]-1H-pyrazole-4-carboxylate]: the pest or weed control at 50 ppm in the test on Uncinula necator worked out at 100%. In addition, the pest or weed control at 10 ppm came to 100% in the test with Phakopsora pachyrhizi (setting [2]) and 0% in test [1] (10 ppm test suspension).
`O=C(OCC1CC1)c1cnn(Cc2ccc(OCC3(C(F)(F)F)OCCO3)cc2)c1` [Compound 127, cyclopropylmethyl 1-[[4-[[2-(trifluoromethyl)-1,3-dioxolan-2-yl]methoxy]phenyl]methyl]-1H-pyrazole-4-carboxylate]: the pest or weed control at 50 ppm in the test on Uncinula necator was found to be 100%. Besides, the pest or weed control at 10 ppm in the test with Phakopsora pachyrhizi (setting [2]) was 100%; in test [1] (10 ppm test suspension), 0%.
As for `CCOC(=O)c1cnn(CCc2ccc(O/C=C(\OCC)C(F)(F)F)cc2)c1` [Compound 132, ethyl 1-[2-[4-[[(1Z)-2-ethoxy-3,3,3-trifluoro-1-propen-1-yl]oxy]phenyl]ethyl]-1H-pyrazole-4-carboxylate], the pest or weed control at 50 ppm in the test with Uncinula necator was determined as 98%. The pest or weed control at 10 ppm with Phakopsora pachyrhizi (setting [2]) came to 100%; in test [1] (10 ppm test suspension), 0%.
For `COCCOC(=O)c1cnn(Cc2ccc(OCC3(C(F)(F)F)OCCO3)cc2)c1` [Compound 162, 2-methoxyethyl 1-[[4-[[2-(trifluoromethyl)-1,3-dioxolan-2-yl]methoxy]phenyl]methyl]-1H-pyrazole-4-carboxylate], in that order: 100%, 100% and 0%.
As for `CCO/C(=C\Oc1ccc(CN2CCC(C#N)CC2)cc1)C(F)(F)F` [compound 311], the “Test A rating (disease control)” value in the test with Phakopsora pachyrhizi (10 ppm test suspension) was found to be 0%. For the same compound, the “Test B rating (disease control)” value in test [1] (10 ppm test suspension) is 0%.
Regarding `CCO/C(=C\Oc1ccc(CN2CCC(OC)CC2)cc1)C(F)(F)F` [compound 312], in the test with Phakopsora pachyrhizi (10 ppm test suspension), the “Test A rating (disease control)” value worked out at 0%. The “Test B rating (disease control)” value in test [1] (10 ppm test suspension) was determined as 0%.
Take `CCO/C(=C\Oc1ccc(Cc2ccnc(OCC[Si](C)(C)C)n2)cc1)C(F)(F)F` [compound 313]: the “Test A rating (disease control)” value in the test with Phakopsora pachyrhizi (50 ppm test suspension) is recorded as 0%. The “Test B rating (disease control)” value in test [1] (50 ppm test suspension) is on record as 0%.
As for `C[Si](C)(C)CCOc1nccc(Cc2ccc(OCC3(C(F)(F)F)OCCO3)cc2)n1` [compound 314], in the test on Phakopsora pachyrhizi (50 ppm test suspension), the “Test A rating (disease control)” value is on record as 0%. Moreover, the “Test B rating (disease control)” value in test [1] (50 ppm test suspension) is 0%.
On to `CCOC(=O)c1cnn(-c2ccc(O/C=C(\OCC)C(F)(F)F)cc2)c1` [compound 316], for which, in the test on Phakopsora pachyrhizi (50 ppm test suspension), the “Test A rating (disease control)” value is 100%. For the same compound, the “Test B rating (disease control)” value in test [1] (50 ppm test suspension) is 9%.
With `O=C(OC1CCC1)c1cnn(Cc2ccc(OCC3(C(F)(F)F)OCCO3)cc2)c1` [compound 318], the “Test A rating (disease control)” value in the test on Phakopsora pachyrhizi (10 ppm test suspension) is reported as 100%. Moreover, the “Test B rating (disease control)” value in test [1] (10 ppm test suspension) was determined as 0%.
For `CCOC(=O)c1cnn(Cc2ccc(OC(F)(F)C3(C(F)(F)F)OCCO3)cc2)c1` [compound 319], in the test with Phakopsora pachyrhizi (50 ppm test suspension), the “Test A rating (disease control)” value is on record as 100%. In addition, the “Test B rating (disease control)” value in test [1] (50 ppm test suspension) was found to be 41%.
For `CCO/C(=C\Oc1cccc(Cn2cc(C(=O)O)cn2)c1)C(F)(F)F` [compound 323], in that order: 100% and 0%.
`CCCO/C(=C\Oc1cccc(Cn2cc(C(=O)OCC)cn2)c1)C(F)(F)F` [compound 324]: in the test on Phakopsora pachyrhizi (10 ppm test suspension), the “Test A rating (disease control)” value is given as 0%. In test [1] (10 ppm test suspension), the “Test B rating (disease control)” value is given as 0%.
Consider `C#CCOC(=O)c1ccn(Cc2ccc(O/C=C(\OCC)C(F)(F)F)cc2)n1` [compound 325], for which the “Test A rating (disease control)” value in the test on Phakopsora pachyrhizi (10 ppm test suspension) is on record as 100%. In test [1] (10 ppm test suspension), the “Test B rating (disease control)” value came out at 0%.
Regarding `CCC#CCOC(=O)c1ccn(Cc2ccc(O/C=C(\OCC)C(F)(F)F)cc2)n1` [compound 326], the “Test A rating (disease control)” value in the test with Phakopsora pachyrhizi (10 ppm test suspension) is recorded as 100%. In test [1] (10 ppm test suspension), the “Test B rating (disease control)” value turned out to be 0%.
For the compound `CCO/C(=C\Oc1ccc(Cn2ccc(C(=O)OC(C)C)n2)cc1)C(F)(F)F` [compound 327], the “Test A rating (disease control)” value in the test with Phakopsora pachyrhizi (10 ppm test suspension) stood at 100%. Further, the “Test B rating (disease control)” value in test [1] (10 ppm test suspension) stood at 0%.
The matching figures for `CCO/C(=C\Oc1cccc(Cn2cc(C(=O)OC(C)C)cn2)c1)C(F)(F)F` [compound 332]: 100% and 0%.
In the case of `C=CCOC(=O)c1cnn(Cc2cccc(O/C=C(\OCC)C(F)(F)F)c2)c1` [compound 333], the “Test A rating (disease control)” value with Phakopsora pachyrhizi (10 ppm test suspension) turned out to be 100%. In addition, in test [1] (10 ppm test suspension), the “Test B rating (disease control)” value is listed as 0%.
For `CCO/C(=C\Oc1cccc(Cn2cc(C(=O)OCC(C)C)cn2)c1)C(F)(F)F` [compound 334], in that order: 100% and 0%.
Regarding `C=C(C)COC(=O)c1cnn(Cc2cccc(O/C=C(\OCC)C(F)(F)F)c2)c1` [compound 335], in the test with Phakopsora pachyrhizi (10 ppm test suspension), the “Test A rating (disease control)” value was determined as 100%. Besides, the “Test B rating (disease control)” value in test [1] (10 ppm test suspension) turned out to be 0%.
For `C#CCOC(=O)c1cnn(Cc2cccc(O/C=C(\OCC)C(F)(F)F)c2)c1` [compound 336], in that order: 100% and 0%.
For `CCO/C(=C\Oc1cccc(Cn2cc(C(=O)OCC(C)=O)cn2)c1)C(F)(F)F` [compound 337], in that order: 100% and 0%.
For `CCO/C(=C\Oc1cccc(Cn2cc(C(=O)OCCCCl)cn2)c1)C(F)(F)F` [compound 338], in that order: 100% and 0%.
For the compound `CCCCOC(=O)c1cnn(Cc2cccc(O/C=C(\OCC)C(F)(F)F)c2)c1` [compound 339], in the test with Phakopsora pachyrhizi (10 ppm test suspension), the “Test A rating (disease control)” value was found to be 100%. Also, the “Test B rating (disease control)” value in test [1] (10 ppm test suspension) was determined as 0%.
For `CCO/C(=C\Oc1cccc(Cn2cc(C(=O)OCCOC)cn2)c1)C(F)(F)F` [compound 340], in that order: 100% and 0%.
For `CCO/C(=C\Oc1cccc(Cn2cc(C(=O)OCC3CC3)cn2)c1)C(F)(F)F` [compound 341], in that order: 100% and 0%.
On to `CCO/C(=C\Oc1cccc(Cn2cc(C(=O)OCC3CCC3)cn2)c1)C(F)(F)F` [compound 342], for which, in the test on Phakopsora pachyrhizi (10 ppm test suspension), the “Test A rating (disease control)” value came to 100%. In test [1] (10 ppm test suspension), the “Test B rating (disease control)” value is on record as 0%.
For `CCNC(=O)c1cnn(Cc2cccc(C/C=C(\OCC)C(F)(F)F)c2)c1` [compound 343], in that order: 0% and 0%.
For `CCCCOC(=O)c1ccn(Cc2ccc(O/C=C(\OCC)C(F)(F)F)cc2)n1` [compound 356], in that order: 100% and 0%.
On to `CCO/C(=C\Oc1ccc(Cn2ccc(C(=O)OCC(C)C)n2)cc1)C(F)(F)F` [compound 357], for which the “Test A rating (disease control)” value in the test with Phakopsora pachyrhizi (10 ppm test suspension) was 100%. Besides, in test [1] (10 ppm test suspension), the “Test B rating (disease control)” value came out at 9%.
The matching figures for `C=C(C)COC(=O)c1ccn(Cc2ccc(O/C=C(\OCC)C(F)(F)F)cc2)n1` [compound 358]: 100% and 0%.
For `CCO/C(=C\Oc1ccc(Cn2ccc(C(=O)OCC(C)=O)n2)cc1)C(F)(F)F` [compound 359], in that order: 100% and 0%.
With `CCO/C(=C\Oc1ccc(Cn2ccc(C(=O)OCCOC)n2)cc1)C(F)(F)F` [compound 360], the “Test A rating (disease control)” value in the test on Phakopsora pachyrhizi (10 ppm test suspension) worked out at 100%. Further, in test [1] (10 ppm test suspension), the “Test B rating (disease control)” value was 0%.
The matching figures for `CCO/C(=C\Oc1ccc(Cn2ccc(C(=O)OCC3CCC3)n2)cc1)C(F)(F)F` [compound 361]: 100% and 0%.
As for `CCO/C(=C\Oc1ccc(Cn2ccc(C(=O)OCCCCl)n2)cc1)C(F)(F)F` [compound 362], in the test with Phakopsora pachyrhizi (10 ppm test suspension), the “Test A rating (disease control)” value came out at 100%. The “Test B rating (disease control)” value in test [1] (10 ppm test suspension) is on record as 0%.
